One compound from BindingDB's records for doi:10.1021/jm0205752 (University of Queensland, 2004) can be followed below.

Each structure is given as a SMILES string. pKi: −log10 of the molar value.

The target of this assay is T1, Alpha-2A adrenergic receptor [16-465] (Rattus norvegicus, UniProt P22909).
T1 construct: 16-465
T1 sequence (P22909 whole entry): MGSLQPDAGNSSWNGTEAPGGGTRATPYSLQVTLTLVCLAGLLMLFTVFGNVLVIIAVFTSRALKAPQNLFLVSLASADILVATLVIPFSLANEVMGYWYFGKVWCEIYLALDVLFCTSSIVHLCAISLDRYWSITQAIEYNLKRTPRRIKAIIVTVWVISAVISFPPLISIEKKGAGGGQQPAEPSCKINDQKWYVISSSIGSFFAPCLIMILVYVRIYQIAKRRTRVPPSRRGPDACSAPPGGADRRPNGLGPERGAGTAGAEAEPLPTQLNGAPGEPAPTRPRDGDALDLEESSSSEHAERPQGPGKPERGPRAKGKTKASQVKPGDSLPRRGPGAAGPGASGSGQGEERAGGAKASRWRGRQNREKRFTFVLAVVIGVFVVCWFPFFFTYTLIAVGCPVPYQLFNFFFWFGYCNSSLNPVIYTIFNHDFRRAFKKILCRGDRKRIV
The assay is described as follows: alpha-Adrenoceptor Radioligand Binding Assay. Particulars: pH 7.7; 25 °C. The method, then:
The binding affinity of compound was evaluated using [3H] Clonidine as ligand in competition binding experiments. Nonspecific binding was determined as the concentration of ligand bound in the presence of 2 uM phentolamine. Ki values were determined by the equation: Ki = IC50/(1 + [clonidine]/KD).

As usually defined, the pKi is −log10 of the Ki, conventionally taken in molar units. The low end stands for a high Ki, the high end for a low Ki.

Consider `NS(=O)(=O)c1ccc2c(c1)CNCC2` [1,2,3,4-tetrahydroisoquinoline-7-sulfonamide], for which the negative logarithm of the Ki (pKi) was 4.00.
